Values of other authors, collected in patent US20200261422A1, “METHODS FOR […] […] HUMAN PATIENTS USING I[…]-2 […]” (Massachusetts Institute of Technology, priority 2019, published 2020).

What was measured:
[1] = in vivo
[2] = tested on: effects of dexmedetomidine (α2 adrenergic receptor agonist); details: intramuscular injection; dexmedetomidine e.g. DEXDOMITOR and DEXDOMITOR 0.1

| Compound | terminal elimination half-life [1] | time to reverse the effects of dexmedetomidine [2] [min] |
| --- | --- | --- |
| Cc1cccc([C@H](C)c2cnc[nH]2)c1C [dexmedetomidine, Dexmedetomidine] | about 2 hours |  |
| CCC1(c2cnc[nH]2)Cc2ccccc2C1 [atipamezole, 4-(2-ethyl-2,3-dihydro-1H-inden-2-yl)-1H-imidazole] |  | 5 to 10 |
